This is an account of results in ChEMBL document CHEMBL4507260 (2021).

In series [1] the target is 5-hydroxytryptamine receptor 2C (Homo sapiens) (UniProt P28335). As to conditions: Compound concentration 10.0 uM; call rule not given here.
The target in series [2] is Adenosine receptor A2a (Homo sapiens) (UniProt P29274). Description: A2A CEREP ligand profiling. To be noted: Compound concentration 10.0 uM.
In series [3] the target is Adenosine receptor A1 (Homo sapiens) (UniProt P30542). As to conditions: Compound concentration 10.0 uM.
Description: A1 CEREP ligand profiling
For series [4], the target named is Pituitary adenylate cyclase-activating polypeptide type I receptor (Homo sapiens) (UniProt P41586). As to conditions: Compound concentration 10.0 uM.
Description: PACAP CEREP ligand profiling
The target of series [5] is Voltage-gated potassium channel (K+V channel) (Homo sapiens, UniProt O43525+O43526+O95259+P16389+P17658+P22001+P22459+P22460+P48547+P51787+P56696+Q03721+Q09470+Q12809+Q14003+Q14721+Q16322+Q6PIU1+Q8NCM2+Q8TAE7+Q8TDN1+Q8TDN2+Q92953+Q96KK3+Q96L42+Q96PR1+Q96RP8+Q9BQ31+Q9H252+Q9H3M0+Q9NR82+Q9NS40+Q9NSA2+Q9NZV8+Q9UIX4+Q9UJ96+Q9UK17+Q9ULD8+Q9ULS6+Q9UQ05). As to the kind of experiment: K+V channel CEREP ligand profiling. In kind it is protein assay. To be noted: compound concentration 10 uM.

Series [6] has as its target Muscarinic acetylcholine receptor M3 (Homo sapiens) (UniProt P20309). To be noted: Compound concentration 10.0 uM.
Description: M3 CEREP ligand profiling
In series [7] the target is D(1A) dopamine receptor (Homo sapiens) (UniProt P21728). Description: D1 CEREP ligand profiling. To be noted: Compound concentration 10.0 uM.
For series [8], the target named is Vasopressin V1a receptor (Homo sapiens) (UniProt P37288). As to conditions: Compound concentration 10.0 uM.
Description: V1A CEREP ligand profiling
Series [9] addresses Calcitonin-gene-related peptide receptor, CALCRL/RAMP1 (Homo sapiens) (UniProt O60894+Q16602). To be noted: Compound concentration 10.0 uM.
Description: CGRP CEREP ligand profiling
The target in series [10] is Muscarinic acetylcholine receptor M1 (Homo sapiens) (UniProt P11229). To be noted: Compound concentration 10.0 uM.
Description: M1 CEREP ligand profiling
The target of series [11] is Beta-2 adrenergic receptor (Homo sapiens) (UniProt P07550). As to the kind of experiment: b 2 CEREP ligand profiling. To be noted: Compound concentration 10.0 uM.
Chain of Beta-2 adrenergic receptor (Homo sapiens) (P07550 whole entry, looked up): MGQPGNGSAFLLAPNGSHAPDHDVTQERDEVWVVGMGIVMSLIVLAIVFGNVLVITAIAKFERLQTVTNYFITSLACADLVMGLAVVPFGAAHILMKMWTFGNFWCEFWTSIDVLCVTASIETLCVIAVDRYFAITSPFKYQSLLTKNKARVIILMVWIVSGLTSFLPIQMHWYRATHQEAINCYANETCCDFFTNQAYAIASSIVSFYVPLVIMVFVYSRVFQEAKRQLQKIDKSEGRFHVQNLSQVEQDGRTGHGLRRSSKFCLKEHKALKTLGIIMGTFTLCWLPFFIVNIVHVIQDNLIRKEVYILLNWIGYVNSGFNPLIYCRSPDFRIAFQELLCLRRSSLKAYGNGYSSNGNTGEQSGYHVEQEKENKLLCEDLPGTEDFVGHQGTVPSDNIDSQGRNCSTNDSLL
For series [12], the target named is Endothelin-1 receptor (Homo sapiens) (UniProt P25101). As to conditions: Compound concentration 10.0 uM.
Chain of Endothelin-1 receptor (Homo sapiens) (P25101 whole entry): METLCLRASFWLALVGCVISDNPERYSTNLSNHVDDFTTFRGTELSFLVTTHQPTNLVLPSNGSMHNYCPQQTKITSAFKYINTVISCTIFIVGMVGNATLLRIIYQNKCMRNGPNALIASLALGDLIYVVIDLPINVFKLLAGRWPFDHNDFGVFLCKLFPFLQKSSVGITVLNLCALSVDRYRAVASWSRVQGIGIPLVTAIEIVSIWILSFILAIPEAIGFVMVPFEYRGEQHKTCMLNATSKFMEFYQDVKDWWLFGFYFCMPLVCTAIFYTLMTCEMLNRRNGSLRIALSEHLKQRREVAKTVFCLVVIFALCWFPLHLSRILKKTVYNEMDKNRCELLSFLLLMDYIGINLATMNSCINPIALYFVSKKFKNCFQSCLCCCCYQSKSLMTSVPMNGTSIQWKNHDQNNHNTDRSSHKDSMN
Description: ETA CEREP ligand profiling
For series [13], the target named is Muscarinic acetylcholine receptor M5 (Homo sapiens) (UniProt P08912). To be noted: Compound concentration 10.0 uM.
Description: M5 CEREP ligand profiling
Series [14] has as its target Beta-1 adrenergic receptor (Homo sapiens) (UniProt P08588). To be noted: Compound concentration 10.0 uM.
Description: b 1 CEREP ligand profiling
In series [15] the target is B2 bradykinin receptor (Homo sapiens) (UniProt P30411). To be noted: Compound concentration 10.0 uM.
Description: B2 CEREP ligand profiling
Series [16] has as its target Cholecystokinin receptor type A (Homo sapiens) (UniProt P32238). To be noted: Compound concentration 10.0 uM.
Description: CCKA (CCK1) CEREP ligand profiling
Series [17] deals with P2Y receptor (Homo sapiens) (UniProt Q9H244+P51582+P47900+P41231+Q15391+Q15077+Q96G91+Q9BPV8). As to conditions: Compound concentration 10.0 uM.
Description: P2Y CEREP ligand profiling
Series [18] has as its target Substance-K receptor (Homo sapiens) (UniProt P21452). Description: NK2 CEREP ligand profiling. As to conditions: Compound concentration 10.0 uM.
In series [19] the target is Thromboxane A2 receptor (Homo sapiens) (UniProt P21731). As to conditions: Compound concentration 10.0 uM.
Chain of Thromboxane A2 receptor (Homo sapiens) (P21731 whole entry): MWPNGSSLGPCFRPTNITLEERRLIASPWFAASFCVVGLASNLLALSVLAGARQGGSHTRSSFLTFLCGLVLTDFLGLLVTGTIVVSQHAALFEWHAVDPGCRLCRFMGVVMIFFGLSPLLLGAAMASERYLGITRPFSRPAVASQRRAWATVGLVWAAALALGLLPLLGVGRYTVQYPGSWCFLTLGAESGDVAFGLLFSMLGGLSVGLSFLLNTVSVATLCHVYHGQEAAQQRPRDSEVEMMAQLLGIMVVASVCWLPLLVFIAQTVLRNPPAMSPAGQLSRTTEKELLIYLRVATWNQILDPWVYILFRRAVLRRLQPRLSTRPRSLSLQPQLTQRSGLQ
Description: TXA2/PGH2 CEREP ligand profiling
Series [20] has as its target Adrenergic receptor alpha-2 (Homo sapiens) (UniProt P08913+P18825+P18089). Description: a 2 CEREP ligand profiling. Type of series: protein assay. To be noted: Compound concentration 10.0 uM.
Series [21] concerns the target 5-hydroxytryptamine receptor 2A (Homo sapiens) (UniProt P28223). To be noted: Compound concentration 10.0 uM.
Description: 5-HT2A CEREP ligand profiling
The target in series [22] is P2X receptor (Rattus norvegicus) (UniProt P51579+P49653+P51578+Q64663+P47824+P51577+P49654). To be noted: Compound concentration 10.0 uM.
Description: P2X CEREP ligand profiling
The target in series [23] is Muscarinic acetylcholine receptor M4 (Homo sapiens) (UniProt P08173). To be noted: Compound concentration 10.0 uM.
Description: M4 CEREP ligand profiling
The target in series [24] is Vasoactive intestinal polypeptide receptor 1 (Homo sapiens) (UniProt P32241). As to conditions: Compound concentration 10.0 uM.
Chain of Vasoactive intestinal polypeptide receptor 1 (Homo sapiens) (P32241 whole entry): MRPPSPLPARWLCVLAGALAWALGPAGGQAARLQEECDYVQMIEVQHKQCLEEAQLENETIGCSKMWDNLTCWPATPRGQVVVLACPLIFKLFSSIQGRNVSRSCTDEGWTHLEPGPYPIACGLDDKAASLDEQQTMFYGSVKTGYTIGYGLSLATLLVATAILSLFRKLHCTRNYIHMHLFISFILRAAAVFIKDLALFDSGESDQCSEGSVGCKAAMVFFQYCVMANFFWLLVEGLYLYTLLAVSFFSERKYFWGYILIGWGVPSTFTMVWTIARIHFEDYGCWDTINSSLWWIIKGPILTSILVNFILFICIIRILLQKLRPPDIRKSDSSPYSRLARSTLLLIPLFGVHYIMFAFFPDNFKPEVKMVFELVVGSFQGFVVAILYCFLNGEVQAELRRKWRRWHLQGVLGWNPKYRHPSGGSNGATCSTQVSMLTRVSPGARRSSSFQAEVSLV
Description: VIP1 (VPAC1) CEREP ligand profiling
Series [25] concerns the target Muscarinic acetylcholine receptor M2 (Homo sapiens) (UniProt P08172). To be noted: Compound concentration 10.0 uM.
Description: M2 CEREP ligand profiling
In series [26] the target is 5-hydroxytryptamine receptor 6 (Homo sapiens) (UniProt P50406). To be noted: Compound concentration 10.0 uM.
Description: 5-HT6 CEREP ligand profiling
The target in series [27] is Neuromedin-K receptor (Homo sapiens) (UniProt P29371). As to the kind of experiment: NK3 CEREP ligand profiling. To be noted: Compound concentration 10.0 uM.
Series [28] addresses 5-hydroxytryptamine receptor 3A (Homo sapiens) (UniProt P46098). As to conditions: Compound concentration 10.0 uM.
Description: 5-HT3 CEREP ligand profiling
Series [29] has as its target GABA-A receptor; anion channel (Homo sapiens) (UniProt P14867+P47870+P18507+P28472+P48169+Q99928+Q9UN88+P34903+O00591+O14764+Q8N1C3+P18505+P78334+P47869+P31644+Q16445). As to conditions: Compound concentration 10.0 uM.
Description: Cl- channel CEREP ligand profiling
Series [30] addresses D(3) dopamine receptor (Homo sapiens) (UniProt P35462). As to conditions: Compound concentration 10.0 uM.
Description: D3 CEREP ligand profiling
Series [31] concerns the target Cannabinoid receptor 2 (Homo sapiens) (UniProt P34972). To be noted: Compound concentration 10.0 uM.
Description: CB2 CEREP ligand profiling
Series [32] addresses Endothelin receptor type B (Homo sapiens) (UniProt P24530). As to conditions: Compound concentration 10.0 uM.
Description: ETB CEREP ligand profiling
For series [33], the target named is Phosphorylase b kinase regulatory subunit alpha, liver isoform (Homo sapiens) (UniProt P46019). As to conditions: Compound concentration 1000.0 nM.
A further series addresses T1, D(4) dopamine receptor (Homo sapiens, UniProt P21917).
T1 sequence (P21917 whole entry): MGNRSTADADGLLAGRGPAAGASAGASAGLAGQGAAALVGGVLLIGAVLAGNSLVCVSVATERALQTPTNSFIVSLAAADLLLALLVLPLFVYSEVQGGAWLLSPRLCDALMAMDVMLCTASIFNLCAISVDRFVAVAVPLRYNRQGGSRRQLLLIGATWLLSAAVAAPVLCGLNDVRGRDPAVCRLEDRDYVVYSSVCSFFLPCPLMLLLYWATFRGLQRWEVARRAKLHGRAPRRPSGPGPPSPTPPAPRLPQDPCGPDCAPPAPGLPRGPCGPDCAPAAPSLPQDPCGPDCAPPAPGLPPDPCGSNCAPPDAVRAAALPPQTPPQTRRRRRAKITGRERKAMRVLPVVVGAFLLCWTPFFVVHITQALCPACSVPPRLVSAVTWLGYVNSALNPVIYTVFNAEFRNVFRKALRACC
Description: Cellular FLIPR (fluorometric imaging plate reader) assay.

Series [34] concerns Epidermal growth factor receptor (Homo sapiens), P00533 [UNDEFINED MUTATION]. To be noted: Compound concentration 1000.0 nM.
Chain of Epidermal growth factor receptor (Homo sapiens), P00533 [UNDEFINED MUTATION] (P00533 whole entry, looked up, change not shown): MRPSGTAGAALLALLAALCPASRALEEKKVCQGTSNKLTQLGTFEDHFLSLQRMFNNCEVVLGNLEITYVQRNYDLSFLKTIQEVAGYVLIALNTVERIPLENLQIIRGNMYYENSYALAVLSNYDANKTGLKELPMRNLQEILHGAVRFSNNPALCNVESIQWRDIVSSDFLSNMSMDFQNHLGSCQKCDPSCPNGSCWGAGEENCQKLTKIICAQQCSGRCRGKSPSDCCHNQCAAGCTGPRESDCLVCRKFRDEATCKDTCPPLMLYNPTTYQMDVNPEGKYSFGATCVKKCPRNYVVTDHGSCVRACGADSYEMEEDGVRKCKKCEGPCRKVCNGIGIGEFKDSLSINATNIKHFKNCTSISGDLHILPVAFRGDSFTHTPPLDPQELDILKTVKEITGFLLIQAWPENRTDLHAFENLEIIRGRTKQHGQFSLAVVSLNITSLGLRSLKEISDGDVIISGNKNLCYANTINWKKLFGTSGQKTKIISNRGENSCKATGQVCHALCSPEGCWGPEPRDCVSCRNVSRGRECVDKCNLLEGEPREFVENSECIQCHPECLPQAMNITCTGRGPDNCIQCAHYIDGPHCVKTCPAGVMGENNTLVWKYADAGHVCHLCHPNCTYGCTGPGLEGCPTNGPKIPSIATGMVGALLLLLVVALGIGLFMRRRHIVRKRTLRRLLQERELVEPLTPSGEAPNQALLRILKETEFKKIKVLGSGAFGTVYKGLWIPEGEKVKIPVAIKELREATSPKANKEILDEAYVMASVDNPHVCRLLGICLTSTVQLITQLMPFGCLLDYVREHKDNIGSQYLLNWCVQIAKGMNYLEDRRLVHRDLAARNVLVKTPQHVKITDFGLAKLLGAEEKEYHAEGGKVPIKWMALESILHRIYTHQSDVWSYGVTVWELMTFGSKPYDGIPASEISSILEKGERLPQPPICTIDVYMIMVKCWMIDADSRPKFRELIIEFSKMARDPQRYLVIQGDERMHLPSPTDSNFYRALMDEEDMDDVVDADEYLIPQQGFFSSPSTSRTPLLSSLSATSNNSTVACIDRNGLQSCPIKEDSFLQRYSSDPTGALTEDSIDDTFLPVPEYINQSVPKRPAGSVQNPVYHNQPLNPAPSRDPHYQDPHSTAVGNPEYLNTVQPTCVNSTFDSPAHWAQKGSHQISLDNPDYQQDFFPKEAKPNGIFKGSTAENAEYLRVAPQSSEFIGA

Chain of Cannabinoid receptor 2 (Homo sapiens) (P34972 whole entry): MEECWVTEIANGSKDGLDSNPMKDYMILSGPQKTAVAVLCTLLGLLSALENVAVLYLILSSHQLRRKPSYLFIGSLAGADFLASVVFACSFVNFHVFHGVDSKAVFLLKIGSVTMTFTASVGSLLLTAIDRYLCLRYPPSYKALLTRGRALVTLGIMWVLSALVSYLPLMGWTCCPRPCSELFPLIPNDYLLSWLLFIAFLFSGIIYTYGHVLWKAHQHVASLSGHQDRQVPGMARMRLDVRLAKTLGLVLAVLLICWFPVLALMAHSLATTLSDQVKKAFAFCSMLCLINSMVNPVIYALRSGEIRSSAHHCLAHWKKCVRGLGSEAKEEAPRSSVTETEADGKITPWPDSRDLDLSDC
Chain of Endothelin receptor type B (Homo sapiens) (P24530 whole entry, canonical isoform): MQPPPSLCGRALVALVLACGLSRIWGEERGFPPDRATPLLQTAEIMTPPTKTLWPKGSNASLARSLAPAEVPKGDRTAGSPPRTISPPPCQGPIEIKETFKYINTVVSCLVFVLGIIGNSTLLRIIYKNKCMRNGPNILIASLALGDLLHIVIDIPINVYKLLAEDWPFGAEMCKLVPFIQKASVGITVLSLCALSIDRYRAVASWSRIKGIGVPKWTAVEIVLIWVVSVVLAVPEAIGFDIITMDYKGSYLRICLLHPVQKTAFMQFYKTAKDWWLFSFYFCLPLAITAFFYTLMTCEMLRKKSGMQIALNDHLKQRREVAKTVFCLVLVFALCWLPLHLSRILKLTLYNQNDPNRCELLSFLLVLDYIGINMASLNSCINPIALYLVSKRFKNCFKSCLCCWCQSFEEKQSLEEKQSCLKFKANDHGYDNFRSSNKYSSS
Chain of 5-hydroxytryptamine receptor 2C (Homo sapiens) (P28335 whole entry): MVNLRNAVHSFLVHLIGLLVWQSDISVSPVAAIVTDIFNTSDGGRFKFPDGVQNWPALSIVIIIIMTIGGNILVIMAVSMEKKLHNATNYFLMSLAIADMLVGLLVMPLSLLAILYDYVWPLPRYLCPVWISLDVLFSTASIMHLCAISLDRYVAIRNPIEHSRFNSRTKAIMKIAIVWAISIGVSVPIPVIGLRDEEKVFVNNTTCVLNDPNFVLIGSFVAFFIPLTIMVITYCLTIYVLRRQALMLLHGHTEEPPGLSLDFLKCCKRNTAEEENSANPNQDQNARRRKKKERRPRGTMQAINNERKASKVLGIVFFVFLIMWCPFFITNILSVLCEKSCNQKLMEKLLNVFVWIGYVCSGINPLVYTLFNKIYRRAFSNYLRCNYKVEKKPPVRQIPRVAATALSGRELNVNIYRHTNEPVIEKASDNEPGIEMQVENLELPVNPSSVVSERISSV
Chain of 5-hydroxytryptamine receptor 3A (Homo sapiens) (P46098 whole entry): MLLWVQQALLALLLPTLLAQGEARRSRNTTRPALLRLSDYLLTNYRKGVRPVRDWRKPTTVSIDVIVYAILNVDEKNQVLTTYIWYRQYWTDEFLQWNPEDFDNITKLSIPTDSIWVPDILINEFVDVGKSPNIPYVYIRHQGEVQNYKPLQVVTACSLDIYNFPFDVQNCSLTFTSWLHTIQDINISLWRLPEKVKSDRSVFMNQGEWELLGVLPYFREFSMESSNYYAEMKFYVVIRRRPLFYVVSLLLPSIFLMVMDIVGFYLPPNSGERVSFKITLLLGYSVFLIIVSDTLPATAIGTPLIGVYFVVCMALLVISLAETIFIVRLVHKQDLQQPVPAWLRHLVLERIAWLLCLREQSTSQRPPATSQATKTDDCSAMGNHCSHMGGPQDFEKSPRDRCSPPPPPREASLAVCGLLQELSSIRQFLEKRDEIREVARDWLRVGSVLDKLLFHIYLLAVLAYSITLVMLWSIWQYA
Chain of Adenosine receptor A2a (Homo sapiens) (P29274 whole entry): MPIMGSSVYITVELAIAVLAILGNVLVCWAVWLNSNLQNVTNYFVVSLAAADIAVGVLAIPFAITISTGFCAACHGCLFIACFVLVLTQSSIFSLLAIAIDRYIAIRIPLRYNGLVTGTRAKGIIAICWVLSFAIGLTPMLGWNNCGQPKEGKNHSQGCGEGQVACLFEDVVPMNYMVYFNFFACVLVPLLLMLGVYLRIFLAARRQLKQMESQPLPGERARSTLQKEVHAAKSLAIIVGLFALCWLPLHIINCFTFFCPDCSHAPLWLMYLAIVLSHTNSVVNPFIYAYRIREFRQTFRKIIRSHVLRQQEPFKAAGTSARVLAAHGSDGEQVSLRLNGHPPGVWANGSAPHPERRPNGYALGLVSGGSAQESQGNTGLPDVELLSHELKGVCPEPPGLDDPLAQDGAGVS

As for `c1ccc(N2CCN(Cc3nc4ccccc4[nH]3)CC2)nc1` [ABT-724], the inhibition in series [1] is 10%; in series [2], 28%; in [3], under 10%; in series [4], under 10%; in series [6], under 10%; in series [7], 24%. Also, the inhibition was under 10% in [8]; under 10% in series [9]; under 10% in [10]; 13% in series [11]; under 10% in series [12]; under 10% in [13]. The inhibition in [14] is under 10%; in series [15], under 10%; in series [16], under 10%; in series [17] it was under 10%; in series [18], 15%; in series [19], under 10%. In addition, the inhibition was 21% in series [20]; under 10% in series [21]; under 10% in series [22]; under 10% in series [23]; under 10% in series [24]; under 10% in [25]. Further, the inhibition in series [26] is under 10%; in series [27], 26%; in series [28], 10%; in series [29], under 10%; in series [30], under 10%; in series [31] it was under 10%. In addition, the inhibition in [32] is under 10%. In addition, the inhibition at 10 µM in [5] is listed as < 10% (not active).
Regarding `CSc1cccnc1N1CCN(Cc2nc3ccccc3[nH]2)CC1` [A-769], the residual activity in series [33] was 100%; in series [34] it was 82%. For the same molecule, the IC50 against D(4) dopamine receptor is recorded as > 10 µM (not active).

In general, inhibition refers to the drop in the measured response relative to a control, in per cent. For orientation: residual activity means what remains of the control signal, in per cent. Broadly, the IC50 is the concentration that inhibits the measured activity by half. Read a high IC50 as lower potency.
